Measured values published in patent US20100285597A1, “DETECTION OF FRAGMENTS OF NECTIN-1 FOR THE DIAGNOSIS OF ALZHEIMER'S DISEASE” (UNIVERSITY OF ROCHESTER, priority 2007, published 2010).

Test system: γ-secretase
Experiment: Western blot of nectin-1 C-terminal fragments in hippocampal neurons overexpressing flag tagged nectin-1, treated with γ-secretase inhibitor
Assay type: cell-based, rat
Conditions: 0.5 and 1 μM inhibitor, 24 hrs, transduced hippocampal neurons at 21 DIV
Method: Hippocampal neurons were plated at a density of 1.3×10^5 cells. The neurons at 21 DIV were transduced with an adenovirus vector expressing a C-terminal flag tagged nectin-1 for 24 hrs at a MOI of 50. Neurons were treated without (FIG. 3, lanes 1 and 2) or with 0.5 μM (FIG. 3, lanes 3 and 4) and 1 μM γ-secretase inhibitor X (FIG. 3, lanes 5 and 6) for 24 hrs. These cells were harvested in reducing sample buffer and analyzed on a 10% SDS-PAGE gel.
Technical difficulties preclude detection of endogenous C-terminal fragments, particularly the 35 and 24 kDa forms due to low expression levels in neurons. To circumvent this, C-terminal Flag tagged nectin-1 was over expressed in neurons as described above.

CC(C)C[C@H](NC(=O)[C@H](Cc1ccccc1)C[C@@H](O)[C@H](Cc1ccccc1)NC(=O)OC(C)(C)C)C(=O)N[C@@H](Cc1ccccc1)C(N)=O [γ-secretase inhibitor X]
density of the 24 kDa nectin-1 band: reduced | density of the 37, 34 and 30 kDa nectin-1 bands: increased
